Data from US20030064380A1, “Anergy-regulated molecules” (The Center For Blood Research, Inc., priority 2001, published 2003).
Residues, ends and D or L forms follow the SMILES beside them. *: point of attachment. Cbz = O=C(OCc1ccccc1)*; CH2F = FC*

System: primary Th1 cells
Assay: protease inhibitors assay: recovery of antigen responses of anergised primary Th1 cells (ELISA or RNase protection)
Type: cell-based, mice
Settings: single inhibitor, two experiments
Procedure: Th1 cells were anergised by pretreatment with 1 μg/ml plate-bound antiCD3ε in the presence of 100 μM Z-VAD.fink (Clabiochem), 5 μM NLVS (Calbiochem) and/or 10 μM lactacystein (Calbiochem) for 16 hours. After that, cells were washed three times and left resting for 48-72 hours.
Whether anergy could be prevented by including caspase and proteasome inhibitors in the first step of pretreatment with ionomycin or anti-CD3 was tested to evaluate the functional importance of proteolytic pathways in anergy induction. […] The variability likely reflects the fact that the proteasome inhibitors are toxic, and needed to be washed away hours to days before the assay stimuli (antigen/APC or anti-CD3/anti-CD28) were applied. […] Similar results were obtained with the D5 T cell clone. Thus directed proteolysis of signaling proteins may be one of several mechanisms that cooperate to maintain lymphocyte anergy.

| Compound | recovery of IL-2 production |
| --- | --- |
| CC(C)CC(C=CS(C)(=O)=O)NC(=O)C(CC(C)C)NC(=O)C(CC(C)C)NC(=O)Cc1cc(I)c(O)c([N+](=O)[O-])c1 (centres unmarked) [NLVS] | 112% |
| COC(=O)C[C@H](NC(=O)[C@H](C)NC(=O)[C@@H](NC(=O)OCc1ccccc1)C(C)C)C(=O)CF [ZVAD] (Cbz-Val-Ala-Asp(OMe)-CH2F) | 90% |
